US20180036292A1, “PHARMACEUTICAL COMPOSITIONS FOR THE TREATMENT OF BACTERIAL INFECTIONS” (WOCKHARDT LIMITED, priority 2016, published 2018)
Where two headings read alike, the source gives them in different places.

How the values were obtained:
[1] = Study 2: Phase 1 multiple ascending dose, drug concentrations in plasma and polymorphonuclear leukocytes (PMN); format: in vivo, human; details: healthy subjects, 600, 800 and 1000 mg once daily day 1 to day 7; sampling day 1 and day 7
Protocol: A Phase 1, randomised, double-blind, single center, placebo controlled sequential cohort study in a maximum of 3 cohort of 10 healthy male and/or female subject each was conducted. Subjects received ascending multiple doses of compound of Formula (I) (600, 800 and 1000 mg) or matching placebo once daily on day 1 to day 7. Blood sampling was performed on day 1 and day 7 to determine the drug concentrations in plasma and polymorphonuclear leukocytes (PMN) (FIG. 2 and FIG. 3). […] Blood sampling was also undertaken at intermittent days to determine the number of doses required to attain the steady state.

[2] = Study 3: concentrations in plasma, epithelial lining fluid (ELF) and alveolar macrophages (AM) after 800 mg once daily for three days; format: in vivo, human; details: for Kp / Kp at 3 h / Kp at 6 h / Kp at 9 h / Kp at 12 h / Kp at 24 h / Kp at 48 h: both sexes, human; for Kp: oral, range over the 48-hour period after drug administration, 800 mg once daily for 3 days; for Kp at 3 h / Kp at 6 h / Kp at 9 h / Kp at 12 h / Kp at 24 h / Kp at 48 h: healthy subjects, 800 mg oral once daily for 3 days, mean ± SD; for Kp at 3 h: sampling time 3 hr after third dose; for Kp at 6 h: sampling time 6 hr after third dose; for Kp at 9 h: sampling time 9 hr after third dose; for Kp at 12 h: sampling time 12 hr after third dose; for Kp at 24 h: sampling time 24 hr after third dose; for Kp at 48 h: sampling time 48 hr after third dose
Protocol: Healthy male and female subjects 18 years of age or older who met the study entry criteria were enrolled into the pharmacokinetic study. Each subject received 800 mg (2 tablets of 400 mg) of compound of Formula (I) administered once daily for three days, with 240 ml of drinking water at a consistent time within two hours after a standard meal and direct observation at the study site. Blood samples were collected to measure concentration of compound of Formula (I) in plasma at 3, 6, 9, 12, 24, and 48 hours following the third dose of compound of Formula (I). Similarly, bronchoscopy was done to measure concentration of compound of Formula (I) in epithelial lining fluid (ELF) and alveolar macrophages (AM) 3, 6, 9, 12, 24, and 48 hours following the third dose of compound of Formula (I). The mean (±SD) concentrations of compound of Formula (I) in plasma (total), ELF, and AM at the bronchopulmonary sampling times are illustrated in FIG. 4. […] Table 1 gives the mean (±SD) ratios of compound of Formula (I) in ELF or AM to the simultaneous total plasma concentrations. The mean ratios of ELF and AM to simultaneous total plasma concentration for compound of Formula (I) during the 48-hour period after drug administration ranged from 10 to 30 and 270 to 800, respectively.

[3] = alveolar macrophages (AM) / plasma (total), read-out: AM to Plasma (Total) concentration ratio
[4] = epithelial lining fluid (ELF) / plasma (total), read-out: ELF to Plasma (Total) concentration ratio

Kp ([2]; alveolar macrophages (AM) / plasma (total), read-out: mean ratio of AM to simultaneous total plasma concentration): 270 to 800
Kp at 3 h [2, 3]: 274 ± 187
Kp at 6 h [2, 3]: 378 ± 172
Kp at 9 h [2, 3]: 383 ± 260
Kp at 12 h [2, 3]: 791 ± 614
Kp at 24 h [2, 3]: 486 ± 193
Kp at 48 h [2, 3]: 428 ± 189
Kp ([2]; epithelial lining fluid (ELF) / plasma (total), read-out: mean ratio of ELF to simultaneous total plasma concentration): 10 to 30
Kp at 3 h [2, 4]: 17 ± 12
Kp at 6 h [2, 4]: 14.5 ± 8.8
Kp at 9 h [2, 4]: 10.4 ± 6.5
Kp at 12 h [2, 4]: 12.4 ± 9.3
Kp at 24 h [2, 4]: 17.6 ± 6.2
Kp at 48 h [2, 4]: 27.2 ± 6.5
SMILES: CC[C@@H]1OC(=O)[C@H](C)C(=O)[C@H](C)[C@@H](OC2O[C@H](C)C[C@H](N(C)C)[C@H]2O)[C@](C)(OC)C[C@@H](C)C(=O)[C@H](C)[C@H]2[C@H](/C(N)=N/O[C@@H](C)c3nnc(-c4ccccn4)s3)C(=O)O[C@@]21C (stereo partly shown) [compound of Formula (I)]
accumulation in polymorphonuclear leukocytes (PMN) in comparison to plasma [1]: accumulated more in polymorphonuclear leukocytes (PMN) in comparison to plasma
concentrations in ELF and AM compared with simultaneous plasma concentrations ([2]; oral 800 mg, throughout the 48-hour period after 3 days of once-daily dosing): significantly higher in ELF and AM than simultaneous plasma concentrations
